The numbers were not newly measured in patent US5683715A, “Taxane-containing phosphatidylcholine liposomes” (The Liposome Company, Inc., priority 1995, dated 1997), which cites them from elsewhere.

Data set [1] concerns ovarian and breast cancers, malignant melanoma, colon cancer, leukemias and lung cancer. The note with it: literature.
For another data set, the system named is tubulin. The note with it: Schiff and Horowitz 1980.

Turning to `CC(=O)O[C@H]1C(=O)[C@@]2(C)[C@H]([C@H](OC(=O)c3ccccc3)[C@]3(O)C[C@H](OC(=O)[C@H](O)[C@@H](NC(=O)c4ccccc4)c4ccccc4)C(C)=C1C3(C)C)[C@]1(OC(C)=O)CO[C@@H]1C[C@@H]2O` [Paclitaxel], in data set [1], the Activity against cancers entry is “activity against ovarian and breast cancers, as well as against malignant melanoma, colon cancer, leukemias and lung cancer”. Moreover, the “Concentrations of optimal effect on polymerization and stabilization of microtubules” value in the data set with tubulin is reported as “near stoichiometric equivalence with tubulin dimers”.
